In BindingDB's records for PubMed 17827 (1977):
Values joined by “and” are separate entries in the source; they are usually repeats but may differ in a detail not shown here. Identical values can stand only once.

target: T1, Alpha-1A adrenergic receptor (Rattus norvegicus, UniProt P43140)
T1 sequence (P43140 whole entry): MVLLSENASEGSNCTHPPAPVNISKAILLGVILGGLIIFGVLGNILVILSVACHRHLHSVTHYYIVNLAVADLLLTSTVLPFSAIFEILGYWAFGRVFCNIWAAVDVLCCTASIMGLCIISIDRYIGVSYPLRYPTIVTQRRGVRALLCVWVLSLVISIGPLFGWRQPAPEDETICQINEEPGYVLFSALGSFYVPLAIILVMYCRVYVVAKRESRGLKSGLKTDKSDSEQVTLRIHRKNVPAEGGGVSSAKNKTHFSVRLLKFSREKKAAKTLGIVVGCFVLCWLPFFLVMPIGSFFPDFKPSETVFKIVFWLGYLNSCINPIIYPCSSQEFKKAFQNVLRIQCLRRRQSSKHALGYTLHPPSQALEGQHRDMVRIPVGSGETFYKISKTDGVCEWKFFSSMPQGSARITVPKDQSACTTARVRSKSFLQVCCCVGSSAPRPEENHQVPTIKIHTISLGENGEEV

Row | SMILES | Ki
1 | NCCc1ccc(O)cc1 | 5.9 µM and 23 µM
2 | CC(C)NC[C@@H](O)c1ccc(O)c(O)c1 | 38 µM and > 70 µM
3 | CN(C)CCC=C1c2ccccc2CCc2ccccc21 | 0.53 µM
4 | CC[C@@H](CO)NC(=O)[C@@H]1C=C2c3cccc4c3c(cn4C)C[C@H]2N(C)C1 | 4.7 µM and 1.9 µM
5 | CN1C2CCC1CC(OC(c1ccccc1)c1ccccc1)C2 (stereo unspecified) | 0.42 µM and 0.047 µM
6 | NCC(O)c1ccc(O)cc1 (racemic) [Octopamine,(+/-)] | 1.56 µM and 11 µM
7 | CNC(=S)NCCCCc1cnc[nH]1 [1-[4-(1H-imidazol-5-yl)butyl]-3-methylthiourea] | 1.03 µM and 1.9 µM
8 | CN1CC(C(=O)N[C@]2(C)O[C@@]3(O)C4CCCN4C(=O)[C@H](Cc4ccccc4)N3C2=O)CC2c3cccc4[nH]cc(c34)CC21 (stereo partly drawn) [7-Methyl-4,6,6a,7,8,9,10,10a-octahydro-indolo[4,3-fg]quinoline-9-carboxylic acid ((2R,5S,10bS)-5-benzyl-10b-hydroxy-2-methyl-3,6-dioxo-octahydro-oxazolo[3,2-a]pyrrolo[2,1-c]pyrazin-2-yl)-amide] | 0.0024 µM and 0.0035 µM
9 | CN1C[C@H](C(=O)N[C@]2(C)O[C@@]3(O)[C@@H]4CCCN4C(=O)[C@H](Cc4ccccc4)N3C2=O)C=C2c3cccc4[nH]cc(c34)C[C@H]21 [12'-hydroxy-2'-methyl-5'alpha-(phenylmethyl)ergotaman-3',6',18-trione] | 0.012 µM
10 | N[C@H]1C[C@@H]1c1ccccc1 [(1S,2R)-(+)-2-phenylcyclopropylamine] | 0.94 µM and 7 µM
11 | CCN(CC)C(=O)[C@@H]1C=C2c3cccc4[nH]cc(c34)C[C@H]2N(C)C1 [(4R,7R)-N,N-diethyl-6-methyl-6,11-diazatetracyclo[7.6.1.0^{2,7}.0^{12,16}]hexadeca-1(16),2,9,12,14-pentaene-4-carboxamide] | 0.22 µM
12 | CC(C)C[C@H]1C(=O)N2CCCC2[C@]2(O)O[C@](NC(=O)[C@@H]3C=C4c5cccc6[nH]cc(c56)CC4N(C)C3)(C(C)C)C(=O)N12 (stereo partly drawn) [ALPHA-ERGOCRYPTINE] | 0.008 µM and 0.009 µM
13 | CN1CCc2cccc3c2[C@H]1Cc1ccc(O)c(O)c1-3 [APOKYN] | 0.95 µM and 2.3 µM
14 | CC(C)C[C@H]1C(=O)N2CCC[C@H]2[C@]2(O)O[C@](NC(=O)[C@@H]3C=C4c5cccc6[nH]c(Br)c(c56)C[C@H]4N(C)C3)(C(C)C)C(=O)N12 [Bromocriptine+ (GTP+)] | 0.009 µM and 0.016 µM
15 | COc1cc2c3cc1Oc1cc(ccc1O)C[C@H]1c4c(cc(OC)c(O)c4Oc4ccc(cc4)C[C@@H]3N(C)CC2)CC[N+]1(C)C [CAS_57-94-3] | > 60 µM and 6.9 µM
16 | CC(CO)NC(=O)C1C=C2c3cccc4[nH]cc(c34)CC2N(C)C1 (stereo unspecified) [CAS_60-79-7] | 1.4 µM and 1.8 µM

Row | SMILES | Ki
17 | C[C@@H](N)Cc1ccc(O)cc1 [CAS_103-86-6] | 5 µM and 39 µM
18 | c1ccc2c(c1)OCC(CN1CCN(CC3COc4ccccc4O3)CC1)O2 (stereo unspecified) [CAS_7762-32-5] | 0.1 µM and 0.019 µM
19 | CC(C)C1(NC(=O)C2CC3c4cccc5[nH]cc(c45)CC3N(C)C2)OC2(O)C3CCCN3C(=O)C(Cc3ccccc3)N2C1=O (stereo unspecified) [Dihydroergocristine] | 0.01 µM and 0.0024 µM
20 | CC(C)[C@H]1C(=O)N2CCC[C@H]2[C@]2(O)O[C@](NC(=O)[C@@H]3C=C4c5cccc6[nH]cc(c56)C[C@H]4N(C)C3)(C(C)C)C(=O)N12 [ERGOCORNINE] | 0.011 µM and 0.01 µM
21 | C#CCN(C)Cc1ccccc1 [N-benzyl-N-methylprop-2-yn-1-amine] | 14 µM and > 70 µM
22 | NNc1nncc2ccccc12 [NSC_3637] | 7.7 µM and 52 µM
23 | N=c1nc(N2CCCCC2)cc(N)n1O [NSC_4201] | > 60 µM and 29 µM
24 | OC(CCN1CCCCC1)(c1ccccc1)C1CCCCC1 (stereo unspecified) [NSC_5572] | 5 µM and 18 µM
25 | ClCCN(Cc1ccccc1)Cc1ccccc1 [NSC_5820] | 0.27 µM and 0.083 µM
26 | CC(C)C[C@H]1C(=O)N2CCC[C@H]2[C@]2(O)O[C@](NC(=O)[C@@H]3C[C@@H]4c5cccc6[nH]cc(c56)C[C@H]4N(C)C3)(C(C)C)C(=O)N12 [NSC_159729] | 0.007 µM and 0.0024 µM
27 | CC(C)C1C(=O)N2CCCC2C2(O)OC(NC(=O)C3CC4c5cccc6[nH]cc(c56)CC4N(C)C3)(C(C)C)C(=O)N12 (stereo unspecified) [NSC_168871] | 0.009 µM and 0.0037 µM
28 | CC(C)[C@@]1(NC(=O)[C@@H]2C=C3c4cccc5[nH]cc(c45)C[C@H]3N(C)C2)O[C@@]2(O)[C@@H]3CCCN3C(=O)[C@H](Cc3ccccc3)N2C1=O [SMR000058447] | 0.018 µM and 0.0063 µM
29 | CCCCCC(C)N (stereo unspecified) [Tuaminoheptane] | 7.1 µM and 68 µM
30 | NCCc1c[nH]c2ccc(O)cc12 [[3H]-5-HT] | 18 µM and 23 µM
31 | C[C@H](N)Cc1ccccc1 [beta-aminopropylbenzene] | 1.6 µM and 10 µM and 2.2 µM and 12 µM
